Test results as given in patent US20140303164A1, “THERAPEUTIC COMPOUNDS” (Gilead Sciences, Inc., priority 2013, published 2014).

Tests used:
HIV-IIIb = assay: Test A: Antiviral Assay in MT4 Cells; type: cell-based, HIV-1; details: Human immunodeficiency virus 1, IIIB, MT4, 120 h; for inhibition at 0.2 µM: read-out: % inhibition at 0.2 μM; for inhibition at 2 µM: read-out: % inhibition at 2 μM
Description: Test A: Antiviral Assay in MT4 Cells
MT-4 cells were next mixed with HIV-IIIb at an m.o.i of 0.003 for 1 hour, after which time 35 μL of virus/cell mixture (2000 cells) was immediately added to each well containing 40 μL of diluted compound. The plates were then incubated at 37° C. for 5 days. […] Cell lysis was carried out by incubating at room temperature for 10 min and then chemiluminescence was read.

[1] = Test B: Cytotoxicity Assay; type: cell-based; details: human, uninfected MT-4 cells, same protocol as Test A
Procedure, shortened: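 Uninfected MT-4 cells (2000 per well) incubated with diluted compound at 37° C. for 5 days, following the antiviral protocol without HIV-IIIb.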

Question: Which inhibition at 0.2 µM (HIV-IIIb) does the source give for `Cn1nc(NS(C)(=O)=O)c2c(Cl)ccc(-c3ccc(C#CC(C)(O)CNC(=O)OC(C)(C)C)nc3[C@H](Cc3cc(F)cc(F)c3)NC(=O)Cn3nc(C(F)(F)F)c4c3C(F)(F)[C@@H]3C[C@H]43)c21` (stereo partly drawn) [Compound 184, tert-butyl (4-(5-(4-chloro-1-methyl-3-(methylsulfonamido)-1H-indazol-7-yl)-6-((S)-1-(2-((3bS,4aR)-5,5-difluoro-3-(trifluoromethyl)-3b,4,4a,5-tetrahydro-1H-cyclopropa[3,4]cyclopenta[1,2-c]pyrazol-1-yl)acetamido)-2-(3,5-difluorophenyl)ethyl)pyridin-2-yl)-2-hydroxy-2-methylbut-3-yn-1-yl)carbamate] here?
Answer: 90%

Question: What about the inhibition at 2 µM (HIV-IIIb) of the same compound?
Answer: 90%

Question: What about the CC50 at 5 days [1] of the same compound?
Answer: 7.69 µM

Question: With `Cn1nc(NC(=O)C2CC2)c2c(Cl)ccc(-c3ccc(C#CC(C)(C)O)nc3[C@H](Cc3cc(F)cc(F)c3)NC(=O)Cn3nc(C(F)F)c4c3C(F)(F)[C@@H]3C[C@H]43)c21` [Compound 86, N-(4-chloro-7-(2-((S)-1-(2-((3b-S,4aR)-3-(difluoromethyl)-5,5-difluoro-3b,4,4a,5-tetrahydro-1H-cyclopropa[3,4]cyclopenta[1,2-c]pyrazol-1-yl)acetamido)-2-(3,5-difluorophenyl)ethyl)-6-(3-hydroxy-3-methylbut-1-yn-1-yl)pyridin-3-yl)-1-methyl-1H-indazol-3-yl)cyclopropanecarboxamide] as the compound, how does the inhibition at 0.2 µM (HIV-IIIb) read?
Answer: 99%

Question: And the inhibition at 2 µM (HIV-IIIb)?
Answer: 99%

Question: And the CC50 at 5 days [1]?
Answer: 6.47 µM

Question: Which inhibition at 0.2 µM (HIV-IIIb) does the source give for `COc1ccc(-c2ccc(C#CC(C)(C)C)nc2[C@H](Cc2cc(F)cc(F)c2)NC(=O)Cn2nc(C(F)F)c3c2C(F)(F)[C@@H]2C[C@H]32)c2nnc(NS(C)(=O)=O)n12` [Compound 130, 2-((3bS,4aR)-3-(difluoromethyl)-5,5-difluoro-3b,4,4a,5-tetrahydro-1H-cyclopropa[3,4]cyclopenta[1,2-c]pyrazol-1-yl)-N—((S)-2-(3,5-difluorophenyl)-1-(6-(3,3-dimethylbut-1-yn-1-yl)-3-(5-methoxy-3-(methylsulfonamido)-[1,2,4]triazolo[4,3-a]pyridin-8-yl)pyridin-2-yl)ethyl)acetamide] here?
Answer: 80%

Question: And the inhibition at 2 µM (HIV-IIIb)?
Answer: 85%

Question: And the CC50 at 5 days [1]?
Answer: 23.2 µM

Question: What does the source list for `Cn1nc(NS(C)(=O)=O)c2cccc(-c3ccc(C#CC(C)(C)O)nc3[C@H](Cc3cc(F)cc(F)c3)NC(=O)Cn3nc(C(F)F)c4c3C(F)(F)[C@@H]3C[C@H]43)c21` [Compound 20, (S)—N-(1-(3-(1-methyl-3-(methylsulfonamido)-1H-indazol-7-yl)-6-(3-hydroxy-3-methylbut-1-ynyl)pyridin-2-yl)-2-(3,5-difluorophenyl)ethyl)-2-((3b-S,4aR)-5,5-difluoro-3-(difluoromethyl)-3b,4,4a,5-tetrahydro-1H-cyclopropa[3,4]cyclopenta[1,2-c]pyrazol-1-yl)acetamide]?
Answer: inhibition at 0.2 µM (HIV-IIIb): 96%; inhibition at 2 µM (HIV-IIIb): 80%; CC50 at 5 days [1]: 11.2 µM

Question: With `Cn1nc(NS(C)(=O)=O)c2c(Cl)ccc(-c3ccc(C#CC(C)(C)O)nc3[C@H](Cc3cc(F)cc(F)c3)NC(=O)Cn3nc(C(F)F)c4c3C3CC3CC4)c21` (stereo partly drawn) [Compound 83, N—((S)-1-(3-(4-chloro-1-methyl-3-(methylsulfonamido)-1H-indazol-7-yl)-6-(3-hydroxy-3-methylbut-1-yn-1-yl)pyridin-2-yl)-2-(3,5-difluorophenyl)ethyl)-2-(3-(difluoromethyl)-5,5a,6,6a-tetrahydrocyclopropa[g]indazol-1(4H)-yl)acetamide] as the compound, how does the inhibition at 0.2 µM (HIV-IIIb) read?
Answer: 94%

Question: And the inhibition at 2 µM (HIV-IIIb)?
Answer: 94%

Question: What about the CC50 at 5 days [1] of the same compound?
Answer: 9.94 µM
